Laboratory results: a melting point compilation (Tetko et al.; mined from patent text by program, amines drawn as free bases though some values may be those of a salt)

Work on `CCCCCCCCCCCCCCCCCC(=O)c1ccc(O)c(C(=O)O)c1` yielded a melting point of 128 to 132 °C. Work on `COc1ccc(C=CC(=O)O)cc1-c1cc2c(cc1OCCCCCC(N)=O)C(C)(C)CCC2(C)C` yielded a melting point of 133 to 135 °C. Work on `CCCc1c[nH]c(CCC(=O)N(C)C)c1` yielded a melting point of 71 to 72 °C. With `N#Cc1ccc(OCc2ccnnc2)cc1OC(C(=O)O)c1ccccc1Cl` (racemic) the melting point was 203 to 205 °C. Work on `C=CCOC(=O)CSc1cccc(NC(=O)NCC(=O)N(CC(=O)OC(C)(C)C)c2ccccc2C(=O)c2ccccc2)c1` yielded a melting point of 155 to 157 °C. With `Cc1c(C(=O)c2ccccc2)c(NC(=O)CI)cn1C` the melting point was 135 to 137 °C. In the case of `O=C(Nc1cccc2c1C(=O)c1c-2n[nH]c1-c1ccc(C(=O)N2CCC[C@H]2CNc2ccccc2)s1)NN1CCOCC1`, the melting point is reported as greater than 300 °C. Compound `CCOC(=O)C(C)c1ccc2oc(Nc3ccc(Cl)cc3)nc2c1` (stereo not drawn) has a melting point of 135 to 137 °C. `O=C(O)CC/C=C/CC(NC(=O)c1ccccc1)C(=O)O` (stereo not drawn) showed a melting point of 138 °C. Work on `CC(C=CCC(C)(C)O)C1CCC2C3=CC=C4CC(O)CCC4(C)C3CCC21C` (stereo not drawn) yielded a melting point of 198 to 200 °C. Work on `CN(C)c1c(-c2ccc(Cl)cc2)sc2ccccc12` yielded a melting point of 81 to 83 °C. Work on `CCNC(=O)c1sc(-n2ccc(O)cc2=O)cc1C` yielded a melting point of 183 to 184 °C. `CN(C)CC1CCc2cc(NC(=O)c3ccc(-c4ccc(CO)cc4)cc3)ccc2C1` (stereo not drawn) gave a melting point of 138 to 139 °C. Work on `c1cnn(-c2cc(-n3cccn3)ncn2)c1` yielded a melting point of 133 to 134 °C. In the case of `CCNC(=O)NC1=C(C(=O)OC)CCNC1=O`, the melting point is reported as 103 °C. With `COC(=O)c1cnn(C)c1S(=O)(=O)NC(=O)Nc1nc(C)cc(OC)n1` the melting point was 183 to 184 °C. With `CCN(CC)C1=NC(NC(=O)CCCCc2ccccc2)C(=O)N(C)c2ccccc21` (stereo not drawn) the melting point was 134 to 135 °C. `CC#COc1ccc2c(C)cc(=O)oc2c1` showed a melting point of 140 to 141 °C. Work on `COc1ccc(-c2[nH]nc3c2C(=O)c2c(NC(=O)CN4CCC(N)CC4)cccc2-3)cc1` yielded a melting point greater than 300 °C. Compound `O=C1Nc2ccc(F)cc2C1CCCCN1CCN(c2cc(Cl)cc3c2OCCO3)CC1` (stereo not drawn) has a melting point of 146 to 148 °C. `CC(=O)OCSc1c(F)cc(-c2c(-c3ccccc3)noc2C)cc1F` showed a melting point of 130 °C. With `CNC(=O)C1(CCCCCCCCO)CC2=C(C1)C(=O)C(OC)=C(OC)C2=O` the melting point was 120 to 123 °C. For `CN(Cc1cc(C(=O)OC(C)(C)C)ccc1[N+](=O)[O-])C(=O)OC(C)(C)C`, the melting point was 56 to 58 °C. Work on `COC(=O)c1cc(C#CCOC2CCCCO2)c(C(F)(F)F)cc1N` (stereo not drawn) yielded a melting point of 88 °C. Work on `CCC(=O)c1cnc(C(=O)C(C)C)cn1` yielded a melting point of 70 to 71 °C. `CC(=O)C(=O)Nc1ccc(C#N)c(C(F)(F)F)c1` showed a melting point of 147 to 148 °C. Work on `COc1cc(C)c2c(Cl)c(OC)ccc2n1` yielded a melting point of 97 to 100 °C. For `N#CCCNC(=O)c1n[nH]cc1NC(=O)c1ccccc1`, the melting point was 186 to 187 °C. For `Cc1nc2c3c(ccn2c1C)C(=O)[C@@](C)(O)[C@@H](c1ccccc1)N3`, the melting point was 240 °C. `CC(C)(O)CC1CN=C(c2cc3cc(Oc4ccc(S(C)(=O)=O)cn4)cc(OC4CCOCC4)c3[nH]2)S1` (stereo not drawn) gave a melting point of 129 to 130 °C. `COc1cccc(SC(CC(=O)c2ccccc2)c2cccc([N+](=O)[O-])c2)c1` (stereo not drawn) gave a melting point of 105 °C. With `CC1c2ccccc2C=Cn2c1n[nH]c2=O` (stereo not drawn) the melting point was 119 to 120 °C. `Nc1c(F)c(F)cc(F)c1[N+](=O)[O-]` gave a melting point of 66 °C. `Cn1nc(-c2ccc(F)cc2F)cc1C(F)(F)F` showed a melting point of 51 °C. For `CCC1CN(O)CCN1O` (stereo not drawn), the melting point was 137 °C. With `COc1c(Br)cc(Br)cc1CC#N` the melting point was 87 to 88 °C. `COc1ncc(-c2nn(C(C)c3oc4ccccc4c(=O)c3-c3cccc(F)c3)c3ncnc(N)c23)cn1` (stereo not drawn) showed a melting point of 224 to 227 °C. `COC(=O)c1ccc(C(=O)c2ccccc2)o1` showed a melting point of 70 to 73 °C. For `O=C1CCC(c2ccccc2)(c2ccccc2)C2CN(C(Cc3ccccc3)=NCCCc3ccccc3)CC12` (stereo not drawn), the melting point was 144 °C. Work on `COC(=O)c1c(C(=O)OC)c2sc3ccccc3n2c1C` yielded a melting point of 143 to 144 °C. Work on `[N-]=[N+]=NCCOc1ccc(C(=C(c2ccc(F)cc2)C(F)(F)F)c2ccccc2)cc1` yielded a melting point of 100 to 110 °C. `ClCCOc1ccc(CBr)cc1` showed a melting point of 64 to 66 °C. For `CCCc1ccc(-c2ncc(C#N)cn2)cc1`, the melting point was 126 °C. `CC(C)(C)OC(=O)CCc1cccc(-c2nc(=O)c3ccc(C(F)(F)F)cc3s2)n1` gave a melting point of 148 to 149 °C. `O=C1OCCN1CCC1=NCCN1` showed a melting point of 118 to 123 °C. `CCN(CC)CCC1CCc2cc(O)ccc2C1` (single isomer, unassigned; (+)) gave a melting point of 102 to 104 °C. `Cc1ccc(NC(=O)NCc2cccc3c2C(=O)N(C2CCC(=O)NC2=O)C3=O)cc1Cl` (stereo not drawn) gave a melting point of 238 to 240 °C. `CCC(CC)N(Cc1ccc(C(=O)OC)cc1)S(=O)(=O)c1ccc(Cl)cc1` gave a melting point of 95 to 97 °C. Compound `CCOC(=O)c1ccc2nc3c(c(=O)n2c1)CSC3` has a melting point of 183 to 185 °C. In the case of `O=C(O)c1cccc(-c2cc(-c3ccc(Cl)cc3)no2)c1`, the melting point is reported as 265 to 266 °C. `CC(C)(O)C1CCC(CNC(=O)c2cccnc2Oc2ccc(F)cc2)CC1` (stereo not drawn) gave a melting point of 78 to 80 °C. Work on `Cc1nc2ccc3c(c2s1)C(=O)CC3` yielded a melting point of 163 to 165 °C. Work on `CC1(C)CN(c2c(C#N)cnn2-c2ccc(Cl)c(Cl)c2Cl)C1=O` yielded a melting point of 147 to 149 °C. Compound `CCCCNC(=O)c1nc2cnn(CC)c2nc1C` has a melting point of 64 to 65 °C. Work on `CC1(c2ccccc2)OCC(=O)N(CCCN2C(=O)c3ccccc3C2=O)c2ccc(Cl)cc21` (stereo not drawn) yielded a melting point of 151 to 153 °C. With `Cc1c(-c2c(F)cc(Cl)c(=O)n2C)nn(C)c1C#N` the melting point was 190 to 191 °C. Work on `CC1(C)C(=O)Oc2ccc3cc(C(N)=O)c(Cn4cncn4)cc3c21` yielded a melting point of 231 to 232 °C. `O=C(CN1CCN(CCCC(c2ccc(F)cc2)c2ccc(F)cc2)C(C(=O)O)C1)Nc1c(Cl)cccc1Cl` (stereo not drawn) gave a melting point of 204 °C. With `COc1ccccc1C(=O)Nc1cc(C)ccc1C#N` the melting point was 147 to 149 °C. Compound `CS(=O)(=O)c1cccc(NC(=O)c2cnn3c(C4CC4)cc(-c4ccc(Cl)cc4)nc23)c1` has a melting point of 235 to 238 °C. `CCOc1cc(N)c(Cl)cc1C(=O)NCC1CN(Cc2ccc(F)cc2)CCO1` (stereo not drawn) gave a melting point of 151 to 153 °C. In the case of `O=C(NCCCCCCOC(=O)N1CCC2(CCCC2)CC1)OC1CCN(C(=O)Oc2ccc3oc4ccccc4c3c2)CC1`, the melting point is reported as 100 to 102 °C. For `CCOC(=O)Cn1c2c(c3cc(Cl)c(Cl)cc31)CCN(C(=O)OC(C)(C)C)CC2`, the melting point was 138 to 140 °C. Compound `CCCCCCCCCCCCCCCc1cccc(OCC)c1C1NC(=O)NC(C)=C1C(=O)OCC` (stereo not drawn) has a melting point of 99 to 100 °C. Work on `CCOC1CC2(C)C(CCC3C4CC5OC5C4(C)CC(N(C)C)C32)CC1O` (stereo not drawn) yielded a melting point of 149 to 151 °C. In the case of `COC(=O)CCC1=NC=C(c2ccc3c(c2)NC(=O)CO3)C(c2ccccc2)S1` (stereo not drawn), the melting point is reported as 119 to 121 °C. Compound `CCOC(=O)c1cc(O)cc2nc(-c3ccc(O)cc3)oc12` has a melting point of 305 to 307 °C. Work on `CCCCc1nn(-c2cc(NC(=O)CC)ccc2Cl)c(=O)n1Cc1ccc(-c2ccccc2S(=O)(=O)NC(C)(C)C)cc1F` yielded a melting point of 103 to 105 °C. In the case of `CCOC(=O)c1cc2cc(OCCOC)cc([N+](=O)[O-])c2[nH]1`, the melting point is reported as 90 to 91 °C. For `CCOC(=O)C1=CC(OC)(OC)CCC1S(=O)(=O)Nc1ccc(F)cc1Cl` (stereo not drawn), the melting point was 97 to 98 °C. In the case of `O=C(NC(Cc1ccccc1)C1CC(Cc2ccccc2)=NO1)c1ccccc1` (stereo not drawn), the melting point is reported as 141 to 142 °C. With `CCCCc1nc2c(N)nc3cccnc3c2n1CCCCNC(=O)c1ccc(C(OCCN(C)C)c2ccccc2)cc1` (stereo not drawn) the melting point was 105 to 108 °C. For `OC(Cc1ccc(F)cc1)c1ccc(F)cc1` (stereo not drawn), the melting point was 48 to 50 °C. With `O=C1N(Cc2ccc(C(F)(F)F)o2)c2ccc(F)cc2C12COc1cc3c(cc12)OCO3` (stereo not drawn) the melting point was 139 to 141 °C. Compound `CNc1nc(-c2cccc(NC(=O)c3cccc(O)c3)c2)c2cc(OC)c(OC)cc2n1` has a melting point of 265 to 267 °C. With `COc1cc(Sc2ccncc2)ccc1[N+](=O)[O-]` the melting point was 97 to 100 °C. For `CCN1CCN(c2nccc(Oc3ccc(NC(=O)c4cc(F)cc(N5CCOCC5)c4)c4ccccc34)n2)CC1`, the melting point was 185 to 186 °C. With `O=C(O)CCc1c(Cl)cccc1-c1cccs1` the melting point was 83 to 86 °C. In the case of `CCCc1c(OCCCCc2ccc3c(Cl)c(OC)c(OC)c(Cl)c3c2)ccc(C(=O)OCc2ccccc2)c1O`, the melting point is reported as 66 to 68 °C. Work on `CC(=O)CC(=O)Nc1ccc(N)c([N+](=O)[O-])c1` yielded a melting point of 146 to 147 °C. Work on `O=C1NCC=NN1c1ccc(C(CCl)c2ccc(Cl)cc2)c(C(F)(F)F)c1` (stereo not drawn) yielded a melting point of 157 to 158 °C. `CC1CC(=O)NN=C1c1ccc(NC(=O)CCNCC(O)C(Cc2ccccc2)Oc2ccc(CCOCC3CC3)cc2)cc1` (stereo not drawn) gave a melting point of 125 to 128 °C. `COc1ccc(C(=O)CCCCCBr)cc1F` showed a melting point of 47 to 48 °C. `Cn1ncnc1COc1nn2c(-c3cnccn3)nncc2c1-c1ccccc1F` gave a melting point of 179 to 180 °C. `CCCCCCCCCCOc1cc(OCCCOc2ccc(O)cc2)cc(C(=O)O)c1` showed a melting point of 106 to 109 °C. `Cc1ccccc1S(=O)(=O)Nc1onc(C)c1Br` gave a melting point of 93 to 96 °C. `Nc1ccc(C(=O)CCCCl)cc1[N+](=O)[O-]` gave a melting point of 150 °C. With `O=C(O)Cn1c2ccccc2c2sccc(=O)c21` the melting point was 275 to 278 °C. With `COc1cc(CCNc2ncnc3scnc23)ccc1Oc1c(F)cnc(C(F)(F)F)c1F` the melting point was 108 to 112 °C. Compound `C=CCOc1ccccc1-c1nc2c(CCC)nn(C)c2c(=O)[nH]1` has a melting point of 116 to 119 °C. `O=S1(=O)N=CN(C2CCCCCC2)c2cc(Cl)ccc21` showed a melting point of 209 to 211 °C. `CC(C)(C)C1=NN(c2ccc(C(=O)O)cc2)C(c2ccc(Cl)cc2)C1` (stereo not drawn) gave a melting point of 208 °C. In the case of `N#Cc1cc(F)ccc1Oc1ccc(-c2cn(C3CCOCC3)c3ncnc(N)c23)cc1`, the melting point is reported as 216 to 217 °C. `CC1CC(C)CN(S(=O)(=O)c2ccc(Cl)c(C(=O)Cl)c2)C1` (stereo not drawn) showed a melting point of 164 to 166 °C. Work on `OCc1ccc(OCc2ccccc2)c2c1OCCO2` yielded a melting point of 106 °C. `COC[C@](C#N)(C(=O)NCC(C)(C)C)[C@H](c1ccccc1OC)c1cccc2ccccc12` (relative stereo) gave a melting point of 185 to 186 °C. `CN1C(=O)C(C)(C)C(=O)N(C)c2cc(C(=O)O)ccc21` showed a melting point greater than 275 °C. In the case of `COc1ccc(C=NNC(=N)N)cc1OC1CCCC1`, the melting point is reported as 100 to 103 °C.
